Source: article PMC9229378, “Copper-67-Labeled Bombesin Peptide for Targeted Radionuclide Therapy of Prostate Cancer” (Pharmaceuticals, 2022)

Columns and labels:
[1] = type: in vitro ADME, human
Protocol: Briefly, 100 µL of the radiolabeled complex was added to 100 µL PBS 1X or human serum (HSA […]) in triplicate. [^67Cu]Cu-SAR-BBN was incubated at 37 °C for 14, 24, 48, 72, and 96 h with moderate agitation. An aliquot (0.5 μL) was withdrawn at each specified time point. Radio-TLCs with a mobile phase of 50 mM DTPA were performed to evaluate the percentage of intact radiolabeled peptides.

[2] = test system: GRPR-positive PC-3 cell line; assay: Cell binding and internalization; type: cell-based; conditions: PC-3 cells
Protocol: The PC-3 cell line was purchased from ATCC (Manassas, VA, USA), revived from liquid nitrogen storage, and cultured at 37 °C, 5% CO2. PC-3 cells were cultured in media containing DMEM, 10% heat-inactivated fetal bovine serum (FBS) (Gibco, Thermo Fisher Scientific, Inc., Waltham, MA, USA), and 10 mM HEPES.
A PC-3 cell suspension was prepared in 1X PBS at a concentration of 10^6 cells/100 μL. Eppendorf tubes (in triplicates) were pretreated with 5% bovine serum albumin (BSA) in PBS to block non-specific binding. Tyr^4-BBN, as a blocking agent, was diluted in 5% BSA in PBS. Then, 100 μL of cells and either 20 μg block or PBS 1X were added to each tube. Approximately 100,000 cpm of [^67Cu]Cu-SAR-BBN was added to the tubes. Cells were incubated at 37 °C at moderate speed to prevent cell settling. After each specified time point (30, 60, 120, 240, and 360 min), cells were centrifuged and the supernatant was aspirated from cell pellets, which was followed by two additional rinses with ice-cold PBS. Cells pellets were then collected and counted for activity on a gamma counter. To determine the fraction of internalized radiotracer, cells were treated with 2 × 0.5 mL of 20 mM sodium acetate (pH 4.0) for 2 min to remove surface-bound radioactivity and counted again for activity.

[3] = test system: PC-3 tumors; assay: Therapy study in PC-3 tumor-bearing mice; type: in vivo, athymic nude mice
Protocol: To assess the therapeutic potential of [^67Cu]Cu-SAR-BBN, athymic nude mice bearing subcutaneous PC-3 tumors with a tumor size of ~150 mm^3 were randomly assigned into 2 groups (n = 12 mice per group). For treatment, mice were dosed intravenously with three injections of 24 MBq [^67Cu]Cu-SAR-BBN on days 0, 2, and 4, followed by a drug-free week before the injections of 24 MBq on days 14, 16, and 18. The total activity injected corresponded to 144 MBq. The control group was injected via tail vein with six injections of 0.9% saline at the same time points. Body weight and tumor volume (through caliper measurements) were monitored and recorded three times a week. Tumor size was calculated by the following formula: L × W^2/2, where L is the long diameter of the tumor and W is the short diameter of the tumor. […] Any remaining mice at day 54 were euthanized, and tumor volume and survival curves were generated and analyzed to evaluate the efficacy of [^67Cu]Cu-SAR-BBN. Percentage tumor growth inhibition was calculated as 100 × (1 − ΔT/ΔC), where ΔC and ΔT were determined by subtracting the mean tumor volume (in the vehicle control and treated group, respectively) on day 0 of treatment from the mean tumor volume on day 19 (the last day all mice remained in the study). […]

[4] = test system: PC-3 tumors; assay: Tumor histology and Ki-67 immunostaining; type: in vivo, athymic nude mice
Protocol: The kidneys, pancreas, livers, and tumors of 4 control mice and 4 treated mice were harvested and fixed in neutral buffered formalin. After fixation and dehydration, tissue samples were embedded in paraffin, and tissue sections were then stained with either hematoxylin and eosin (H&E) or Ki-67 for microscopic examination. H&E staining of tissue samples was prepared by the Anatomic and Molecular Pathology Core Lab, Washington University in St Louis. Ki-67 immunostaining was performed on 5 µm tissue sections of PC-3 tumors. The slides were baked in 55 °C oven for 60 min. The sections were deparaffinized, and heat-induced antigen retrieval was performed in citrate buffer 0.1 M pH 6.0 at 92 °C. After 20 min, the slides were cooled in 4 °C fridge for 15 min. The sections were then blocked with Dako Endogenous Enzyme Block (Dako North America, Inc., Carpinteria, CA, USA) for 10 min and washed twice with Dako Wash Buffer 1X. The sections were blocked with 10% goat serum in PBS for another 45 min and washed 2 × 5 min with Dako Wash Buffer 1X. The slides were then rinsed and incubated with Ki-67 antibody (1:100 dilution) overnight at 4 °C. […] Staining results were assessed by Olympus fluorescent microscope (BX51) and the cell Sense software in a blinded manner.

Structure (SMILES): CC(C)C[C@H](NC(=O)C[C@H](O)[C@H](CC(C)C)NC(=O)[C@H](Cc1c[nH]cn1)NC(=O)CNC(=O)[C@@H](NC(=O)[C@H](C)NC(=O)[C@H](Cc1c[nH]c2ccccc12)NC(=O)[C@H](CCC(N)=O)NC(=O)[C@@H](Cc1ccccc1)NC(=O)CCOCCOCCOCCOCCNC(=O)CCCC(=O)NC12CNCCNCC(C)(CNCCNC1)CNCCNC2)C(C)C)C(N)=O [[^67Cu]Cu-SAR-BBN, metal not drawn]
- free 67Cu in human serum [1]: < 5%
- bound to the GRPR receptors ([2]; 37 °C): more than 50%
- internalized into the cells ([2]; 37 °C): about 20%
- total bound with blocking (non-specific binding, % of total added radioactivity) ([2]; excess Tyr4-BBN (20 μg block)): 5.8 ± 0.1%
- rapid recurrence of tumor needing early sacrifice ([3]; 144 MBq over 3 weeks): no animals having a rapid recurrence
- median survival (time to tumor endpoint of 2500 mm^3) ([3]; six i.v. doses of 24 MBq, total 144 MBq, n = 12, study ended day 54, control 34.5 days, p = 0.0015): greater than 54 days
- tumor necrosis (blinded review of tumor samples) ([4]; 4 tumors per group): more extensive areas of necrosis in three out of four tumors
- mean proliferation index (PI), Ki-67 ([4]; tumor areas without necrosis, immune infiltrate or host stroma, 4 tumors, control 38.1%, p = 0.26): 50.3%
